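48-hour exposure; five concentrations; linearly interpolated endpoints. At the GI50, growth is halved.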 Calls of active or inactive are those of the source. Cut-off read from the data, not from the text of the source: active = GI50 up to about 1.1 µM and inactive = higher.
Assays:
Assay in all cases: NCI tumour cell line growth inhibition, 48 h
SK-MEL-5 = system: SK-MEL-5
SR = system: SR
Hs-578T = system: Hs-578T
IGROV-1 = system: IGROV-1
BT-549 = system: BT-549
K562 = system: K562
MDA-N = system: MDA-N
M14 = system: M14
EKVX = system: EKVX
NCI-H23 = system: NCI-H23
ACHN = system: ACHN
CCRF-CEM = system: CCRF-CEM
MDA-MB-435 = system: MDA-MB-435
SK-MEL-2 = system: SK-MEL-2
PC-3 = system: PC-3
U-251 = system: U-251
MDA-MB-231 = system: MDA-MB-231
HT-29 = system: HT-29
RPMI-8226 = system: RPMI-8226

| SMILES | GI50 (SK-MEL-5) | GI50 (SR) | GI50 (Hs-578T) | GI50 (IGROV-1) | GI50 (BT-549) | GI50 (K562) | GI50 (MDA-N) | GI50 (M14) | GI50 (EKVX) | GI50 (NCI-H23) | GI50 (ACHN) | GI50 (CCRF-CEM) | GI50 (MDA-MB-435) | GI50 (SK-MEL-2) | GI50 (PC-3) | GI50 (U-251) | GI50 (MDA-MB-231) | GI50 (HT-29) | GI50 (RPMI-8226) |
| --- | --- | --- | --- | --- | --- | --- | --- | --- | --- | --- | --- | --- | --- | --- | --- | --- | --- | --- | --- |
| C/C(=N\N=C(\N)SB(F)F)c1ccc2ccccc2c1 | > 100 µM (inactive) | 54.5 µM (inactive) | > 100 µM (inactive) | > 100 µM (inactive) | > 100 µM (inactive) | > 100 µM (inactive) | > 100 µM (inactive) | > 100 µM (inactive) | > 100 µM (inactive) | > 100 µM (inactive) | > 100 µM (inactive) | 4.37 µM (inactive) | > 100 µM (inactive) | > 100 µM (inactive) | > 100 µM (inactive) | > 100 µM (inactive) | > 100 µM (inactive) | > 100 µM (inactive) | – |
| CC(C)c1nc2cc(C(F)(F)F)ccc2[nH]c1=O | 61.7 µM (inactive) | 43.3 µM (inactive) | 3.4 µM (inactive) | > 100 µM (inactive) | > 100 µM (inactive) | > 100 µM (inactive) | > 100 µM (inactive) | > 100 µM (inactive) | 7 µM (inactive) | > 100 µM (inactive) | 72.1 µM (inactive) | 0.361 µM (active) | > 100 µM (inactive) | 62.1 µM (inactive) | 77.8 µM (inactive) | > 100 µM (inactive) | 69 µM (inactive) | 72.1 µM (inactive) | > 100 µM (inactive) |
| N#CC1N(C(=O)c2ccc(F)cc2)c2ccccc2N1C(=O)c1ccc(F)cc1 | 23.9 µM (inactive) | 70.3 µM (inactive) | 68.1 µM (inactive) | 32.4 µM (inactive) | 24.9 µM (inactive) | 28.2 µM (inactive) | 48.5 µM (inactive) | 43.8 µM (inactive) | 44.4 µM (inactive) | 50.4 µM (inactive) | 38.5 µM (inactive) | 28 µM (inactive) | 46.1 µM (inactive) | > 100 µM (inactive) | 49.1 µM (inactive) | 74.5 µM (inactive) | 46.7 µM (inactive) | 33 µM (inactive) | 23.7 µM (inactive) |
| COc1ccc(COCC[C@H](C)OC2OC(CO[Si](C)(C)C(C)(C)C)C(O)C(O)C2O)cc1 (some centres not stated) | > 100 µM (inactive) | > 100 µM (inactive) | > 100 µM (inactive) | > 100 µM (inactive) | > 100 µM (inactive) | > 100 µM (inactive) | > 100 µM (inactive) | > 100 µM (inactive) | > 100 µM (inactive) | > 100 µM (inactive) | > 100 µM (inactive) | > 100 µM (inactive) | > 100 µM (inactive) | > 100 µM (inactive) | 72.9 µM (inactive) | > 100 µM (inactive) | > 100 µM (inactive) | > 100 µM (inactive) | > 100 µM (inactive) |
| COC(=O)C1OC(O[C@H]2CC[C@]3(C)[C@H]4CC=C5[C@@H]6CC(C)(C)CC[C@]6(C(=O)OC)CC[C@@]5(C)[C@]4(C)CC[C@H]3C2(C)C)C(O)C(O)C1O (some centres not stated) | 18.2 µM (inactive) | 3.72 µM (inactive) | 19.9 µM (inactive) | 18 µM (inactive) | 17.8 µM (inactive) | 14.9 µM (inactive) | 17 µM (inactive) | 16.2 µM (inactive) | 12.4 µM (inactive) | 11.9 µM (inactive) | 11.8 µM (inactive) | 5.66 µM (inactive) | 16.5 µM (inactive) | 17.3 µM (inactive) | 15.1 µM (inactive) | 11.4 µM (inactive) | 4.45 µM (inactive) | 10.5 µM (inactive) | 20.1 µM (inactive) |
| O=C(/C=C/c1ccc(/C=C/C(=O)c2ccc(O)cc2)cc1)c1ccc(O)cc1 | > 100 µM (inactive) | > 100 µM (inactive) | > 100 µM (inactive) | > 10 µM (inactive) | > 100 µM (inactive) | > 100 µM (inactive) | > 100 µM (inactive) | > 100 µM (inactive) | > 100 µM (inactive) | > 100 µM (inactive) | > 100 µM (inactive) | > 100 µM (inactive) | > 100 µM (inactive) | > 100 µM (inactive) | > 100 µM (inactive) | 16.4 µM (inactive) | > 100 µM (inactive) | 58.1 µM (inactive) | > 100 µM (inactive) |
| O=c1[nH]c2cc([N+](=O)[O-])c(N(CCO)CCO)c([N+](=O)[O-])c2[nH]1 | 17.5 µM (inactive) | 24.1 µM (inactive) | 53.2 µM (inactive) | 65.5 µM (inactive) | 18.5 µM (inactive) | 32 µM (inactive) | 33.7 µM (inactive) | 28.6 µM (inactive) | 12.9 µM (inactive) | 30.5 µM (inactive) | 43.7 µM (inactive) | 44.7 µM (inactive) | 28.7 µM (inactive) | 37.6 µM (inactive) | 44.4 µM (inactive) | 44.1 µM (inactive) | 52.6 µM (inactive) | 30.3 µM (inactive) | 26.7 µM (inactive) |
